Publication PMC6695355, “Alanine Scanning Studies of the Antimicrobial Peptide Aurein 1.2” (Probiotics and Antimicrobial Proteins, 2018)
In brackets after ≈: the same amount, converted by molar mass. Where two headings read alike, the source gives them in different places. Where a SMILES comes first, the peptide text is derived from it.

Assays:
[1] = test system: S. aureus ATCC 25923 biofilm formation; format: cell-based, Staphylococcus aureus; settings: ATCC 25923, 24 h
Method: (§1) The minimum inhibitory concentrations (MICs) of test compounds were assessed by broth microdilution method on 96-well plates, according to the guidelines of Clinical and Laboratory Standards Institute (CLSI). For this purpose, reference strains of bacteria: S. aureus ATCC 25923, E. faecalis PCM 2673, E. coli ATCC 25922, and P. aeruginosa ATCC 9027; and fungus: C. albicans ATCC 10231 were used (The Polish Collection of Microorganism, Polish Academy of Sciences, Wrocław, Poland). Bacteria at initial inoculums of 0.5 × 10^5 CFU/mL in Mueller Hinton Broth (MHB), and fungi at initial inoculums of 2 × 10^3 CFU/mL in RPMI-1640, were exposed to the compounds over the concentration range of 1–512 μg/mL. The polystyrene plates were incubated at 37 °C for 18 h with bacteria and for 24 h with C. albicans. The MIC was taken as the lowest concentration at which a noticeable growth of microorganisms was inhibited. Minimum biofilm eradication concentrations (MBECs) were determined using a previously described protocol. For this purpose, 96-well polystyrene flat-bottom plates and a resazurin (7-hydroxy-3H-phenoxazin-3-one 10-oxide) were used. In this assay, a specific feature of resazurin is utilized, which upon the contact with living cells is metabolized and reduced from the basic blue form to pink resorufin. Briefly, 24-h cultures of microorganisms were diluted 1,000-fold and 100 μL of that suspension was added into the test plates. After 24 h of incubation at 37 °C, the wells of the plates were rinsed three times with phosphate buffer saline (PBS) to remove non-adherent cells. Subsequently, 100 μL of test compounds in concentration range (diluted in appropriate media) were added to each well. After 24 h of incubation at 37 °C, 20 μL of the resazurin (4 mg/mL) was added. The MBEC was read after 1 h. Additionally, anti-adhesive properties of the compounds were also analyzed. The assay was conducted on 96-well polystyrene flat-bottom plates. The preparation of inoculums was followed by a 500-fold dilution of 24-h cultures of microorganisms. Briefly, to evaluate the effect of the peptides in preventing biofilm formation, 50 μL of compounds in concentration range, diluted in appropriate medium, were prepared. Subsequently, the 50 μL of the bacterial/fungal inoculums were added to reach the same microbial density as that in MBEC assay. After 24 h of incubation at 37 °C, the wells were rinsed three times with PBS and the fresh media with resazurin (0.6 mg/mL) were added. Then, after 1 h of incubation, the minimum biofilm inhibitory concentrations (MBIC) were read. MBECs as well as MBICs were determined as the lowest concentration at which the reduction of resazurin was lower or equal (10% ± 0.5%) as compared to positive (100%) and negative (0%) controls. All experiments were performed in triplicate.

[2] = test system: S. aureus ATCC 25923 biofilm; format: cell-based, Staphylococcus aureus; settings: ATCC 25923, 24 h
Method: as §1

[3] = test system: S. aureus ATCC 25923; format: cell-based, Staphylococcus aureus; settings: ATCC 25923, 18 h
Method: as §1

[4] = test system: E. faecalis PCM 2673 biofilm formation; format: cell-based, Enterococcus faecalis; settings: 24 h
Method: as §1

[5] = test system: E. faecalis PCM 2673 biofilm; format: cell-based, Enterococcus faecalis; settings: 24 h
Method: as §1

[6] = test system: E. faecalis PCM 2673; format: cell-based, Enterococcus faecalis; settings: PCM 2673, 18 h
Method: as §1

[7] = test system: E. coli ATCC 25922 biofilm formation; format: cell-based, Escherichia coli; settings: ATCC 25922, 24 h
Method: as §1

[8] = test system: E. coli ATCC 25922 biofilm; format: cell-based, Escherichia coli; settings: ATCC 25922, 24 h
Method: as §1

[9] = test system: E. coli ATCC 25922; format: cell-based, Escherichia coli; settings: ATCC 25922, 18 h
Method: as §1

[10] = test system: P. aeruginosa ATCC 9027 biofilm formation; format: cell-based, Pseudomonas aeruginosa; settings: ATCC 9027, 24 h
Method: as §1

[11] = test system: P. aeruginosa ATCC 9027 biofilm; format: cell-based, Pseudomonas aeruginosa; settings: ATCC 9027, 24 h
Method: as §1

[12] = test system: P. aeruginosa ATCC 9027; format: cell-based, Pseudomonas aeruginosa; settings: ATCC 9027, 18 h
Method: as §1

[13] = test system: C. albicans ATCC 10231 biofilm formation; format: cell-based, Candida albicans; settings: ATCC 10231, 24 h
Method: as §1

[14] = test system: C. albicans ATCC 10231 biofilm; format: cell-based, Candida albicans; settings: ATCC 10231, 24 h
Method: as §1

[15] = test system: C. albicans ATCC 10231; format: cell-based, Candida albicans; settings: ATCC 10231, 24 h
Method: as §1

[16] = test system: human red blood cells (RBCs); assay: Hemolysis assay; format: cell-based
Method: The hemolytic activity of the peptides was determined using fresh human red blood cells (RBCs) collected from a healthy human donor according to the procedure described in the literature. Fresh RBCs with EDTA as anticoagulant were rinsed three times with a PBS by centrifugation at 800×g for 10 min and resuspension in PBS. Serial dilution of the peptides in PBS (1–256 μg/mL) on 96-well polystyrene plates was prepared and the stock solution of RBCs was added up to a final volume of 100 μL with a 4% concentration of erythrocytes (v/v). The control wells for 0 and 100% hemolysis contained of RBCs suspended in PBS and 1% of Triton-X 100, respectively. Subsequently, the plates were incubated for 1 h at 37 °C and then centrifuged at 800×g for 10 min at 4 °C (Sorvall ST 16R Centrifuge, Thermo Scientific). After centrifugation, the supernatant was carefully […] to new microtiter plates and the release of hemoglobin was measured at 540 nm (Multiskan™ GO Microplate Spectrophotometer, Thermo Scientific). All experiments were conducted in triplicate.

[17] = in vitro; format: in vitro ADME; settings: bovine, serum
Method: To assess serum stability, the peptides (0.5 mg) were dissolved in 4 mL of 25% (v/v) fetal bovine serum (FBS) in PBS and incubated at 37 °C. The aliquots of 100 μL of the test samples were transferred to 96-well polystyrene plates in triplicate for each time point. Samples were quenched at zero time (t0) and after 6 h of incubation at 37 °C by addition of 100 μL of ice-cold acetonitrile and stored at 4 °C for 10 min. Afterwards, the samples were centrifuged at 13,000×g for 20 min at 4 °C and diluted 1:1 with HPLC-grade water. All samples were analyzed using the Waters Alliance e2695 system with Waters Acquity QDa Detector (software–Empower®3). Analyses were conducted on an Agilent Zorbax SB-C18 RP-18 column (4.6 × 50 mm, 1.8-μm particle size, 80-Å pore size) using a linear 30–60% acetonitrile (B) gradient in deionized water (A) over 6 min at 25.0 ± 0.1 °C, at a flow rate of 0.5 mL/min and MS working in selected ion recording (SIR) mode (A—0.1% aqueous formic acid (FA) and B—0.1% FA in acetonitrile). The percentage of peptide remaining intact was calculated from peak areas of samples at t0 and after 6 h of incubation in serum (the % of remaining peptide = peak area after 6 h/peak area at t0). The mass-to-charge ratios selected for SIR mode were based on values obtained from full spectrum analysis of each peptide and are presented in Table 1.

Row | MIC, S. aureus ATCC 25923 [3] [µg/mL] | MIC, E. faecalis PCM 2673 [6] [µg/mL] | MIC, E. coli ATCC 25922 [9] [µg/mL] | MIC, P. aeruginosa ATCC 9027 [12] [µg/mL] | MIC, C. albicans ATCC 10231 [15] [µg/mL] | SMILES | MBIC, S. aureus ATCC 25923 [1] [µg/mL] | MBEC, S. aureus ATCC 25923 [2] [µg/mL] | MBIC, E. faecalis PCM 2673 [4] [µg/mL] | MBEC, E. faecalis PCM 2673 [5] [µg/mL] | MBIC, E. coli ATCC 25922 [7] [µg/mL] | MBEC, E. coli ATCC 25922 [8] [µg/mL] | MBIC, P. aeruginosa ATCC 9027 [10] [µg/mL] | MBEC, P. aeruginosa ATCC 9027 [11] [µg/mL] | MBIC, C. albicans ATCC 10231 [13] [µg/mL] | MBEC, C. albicans ATCC 10231 [14] [µg/mL] | Percentage of hemolysis at 1 μg/mL ([16]; red cells of human, 1 h) [%] | Percentage of hemolysis at 4 μg/mL ([16]; red cells of human, 1 h) [%] | Percentage of hemolysis at 8 μg/mL ([16]; red cells of human, 1 h) [%] | Percentage of hemolysis at 16 μg/mL ([16]; red cells of human, 1 h) [%] | Percentage of hemolysis at 32 μg/mL ([16]; red cells of human, 1 h) [%] | further results
1 | 16 (≈ 11.1 µM) | 32 (≈ 22.3 µM) | 8 (≈ 5.57 µM) | 64 (≈ 44.6 µM) | 64 (≈ 44.6 µM) | CC[C@H](C)[C@H](NC(=O)[C@H](C)NC(=O)[C@H](Cc1ccccc1)NC(=O)[C@H](CC(C)C)NC(=O)CN)C(=O)N[C@H](C(=O)N[C@@H](CCCCN)C(=O)N[C@@H](CCCCN)C(=O)N[C@H](C(=O)N[C@@H](C)C(=O)N[C@@H](CCC(=O)O)C(=O)N[C@@H](CO)C(=O)N[C@@H](Cc1ccccc1)C(N)=O)[C@@H](C)CC)[C@@H](C)CC [Peptide D4A] (H-GLFAIIKKIAESF-NH2) | 16 | 16 | 32 | 128 | 8 | 32 | 64 | 512 | 2 | 512 | 0.2 | 0.3 | 0.3 | 0.3 | 1.5 | Percentage of hemolysis at 2 μg/mL ([16]; red cells of human, 1 h, 2): 0.3%; Percentage of hemolysis at 64 μg/mL ([16]; red cells of human, 1 h): 6.6%; Percentage of hemolysis at 128 μg/mL ([16]; red cells of human, 1 h): 23.2%; Percentage of hemolysis at 256 μg/mL ([16]; red cells of human, 1 h): 61.0%; remaining at 6 h, 0.125 mg/mL [17]: 44%
2 | 32 (≈ 22.5 µM) | 32 (≈ 22.5 µM) | 16 (≈ 11.3 µM) | 64 (≈ 45 µM) | 32 (≈ 22.5 µM) | CC[C@H](C)[C@H](NC(=O)[C@H](CCCCN)NC(=O)[C@H](CCCCN)NC(=O)[C@@H](NC(=O)[C@@H](NC(=O)[C@H](CC(=O)O)NC(=O)[C@H](Cc1ccccc1)NC(=O)[C@H](CC(C)C)NC(=O)CN)[C@@H](C)CC)[C@@H](C)CC)C(=O)N[C@@H](C)C(=O)N[C@@H](C)C(=O)N[C@@H](CO)C(=O)N[C@@H](Cc1ccccc1)C(N)=O [Peptide E11A] (H-GLFDIIKKIAASF-NH2) | 32 | 16 | 32 | > 512 | 16 | 64 | 64 | 512 | 4 | > 512 | 0.1 | 0.2 | 0.1 | 0.1 | 0.4 | Percentage of hemolysis at 2 μg/mL [16]: 17.4%; Percentage of hemolysis at 64 μg/mL ([16]; red cells of human, 1 h): 2.9%; Percentage of hemolysis at 128 μg/mL ([16]; red cells of human, 1 h): 11.9%; Percentage of hemolysis at 256 μg/mL ([16]; red cells of human, 1 h): 40.2%; remaining at 6 h, 0.125 mg/mL [17]: 17%
3 | 512 (≈ 365 µM) | 256 (≈ 182 µM) | 128 (≈ 91.2 µM) | 512 (≈ 365 µM) | 128 (≈ 91.2 µM) | CC[C@H](C)[C@H](NC(=O)[C@H](CCCCN)NC(=O)[C@H](CCCCN)NC(=O)[C@@H](NC(=O)[C@@H](NC(=O)[C@H](CC(=O)O)NC(=O)[C@H](C)NC(=O)[C@H](CC(C)C)NC(=O)CN)[C@@H](C)CC)[C@@H](C)CC)C(=O)N[C@@H](C)C(=O)N[C@@H](CCC(=O)O)C(=O)N[C@@H](CO)C(=O)N[C@@H](Cc1ccccc1)C(N)=O [Peptide F3A] (H-GLADIIKKIAESF-NH2) | >512 | > 512 | 256 | > 512 | 256 | 256 | 512 | > 512 | 4 | > 512 | 0.1 | 0.0 | 0.0 | 0.0 | 0.0 | Percentage of hemolysis at 2 μg/mL ([16]; red cells of human, 1 h, 2): 0.1%; Percentage of hemolysis at 64 μg/mL ([16]; red cells of human, 1 h): 0.0%; Percentage of hemolysis at 128 μg/mL ([16]; red cells of human, 1 h): 0.0%; Percentage of hemolysis at 256 μg/mL ([16]; red cells of human, 1 h): 0.3%; remaining at 6 h, 0.125 mg/mL [17]: 38%
